# Laboratory results published in patent US8668937B2, “Topical nitric oxide systems and methods of use thereof” (Transdermal Biotechnology, Inc., priority 2011, dated 2014).
# Entries after “also recorded” stand apart in the source; their conditions may differ.
# Experiment: Nitric oxide gas bubbled through carrier, change in weight noted
# Assay type: physicochemical
# Conditions: 25 °C
# Procedure: This example illustrates one technique for preparing a composition in accordance with one embodiment of the invention. An accurate amount of a carrier (HNC 167-62) (see below) was introduced into a system. The carrier weight used in these experiments was approximately 250 g and the vessel size was 500 ml. The vessel was equipped with a mechanical stirrer, gas inlet, and gas outlet and was previously purged with argon for about an hour. The temperature of the carrier was kept at about 25-30° C. NO gas regulated at 5 psi (1 psi is about 6,900 Pa) and was then introduced at a controlled rate of about 1 bubble/s with continuous stirring. […] After 6 hours, the weight of the carrier had increased by 0.15%, by 12 hours by 0.25%, and by 24 hours by 0.56%. These increases in weight were believed to be significant considering the relative small molecular weight of NO versus the carrier. […] The carrier also can solidify upon cooling if the carrier is initially a solid at lower temperature.
# Each carrier was taken in a 500 mL three necked flask equipped with a mechanical stirrer, gas inlet and a gas outlet. The system was purged with argon for one hour at room temperature (25° C.). Then nitric oxide gas was bubbled into the system. Then, nitric oxide gas was bubbled through carrier for stipulated amount of time. The changes in weight and color were noted. The details of individual experiments were as follows.
smiles,measurement,setting,value
"OCCCO [1,3-Propanediol, 1,3-propanediol]",% Wt. gain,NO gas bubbled 40 hr,0.09%
same,Wt. Gain g,NO gas bubbled 40 hr,0.16 g
same,weight gain when NO was passed through (in words),"neat, NO gas bubbled 40 hours","only negligible, if any, weight gain; also recorded: failed to gain any significant weight"
